Series [1] in a line: Cell viability, crystal violet (CV) assay, HCT-116. Format: cell-based. The note with it: human. How it is done: (§1) The cytotoxicity of crude extract and isolated compounds were evaluated against the human tumor cell lines PC-3 (prostatic carcinoma cell) and HCT-116 (colorectal carcinoma cell). Cell maintenance was performed as described in the literature. The extract and isolated compounds were tested at the concentrations of 0.05 and 50 μg/mL and 0.01 and 10 μM, respectively. Saponin digitonin (100 µM), a very potent permeabilizer of cell membranes, was used as positive control to induce 0% cell viability after 48 h of treatment.
(§2) Cell viability was determined by MTT and crystal violet (CV) assays after 48 h of incubation. Absorbance was measured using an automated microplate reader at 540 nm with a reference wavelength of 670 nm. Results are expressed as percentages relative to untreated control cultures.

Series [2] in a line: Cell viability, MTT assay, PC-3. Format: cell-based, human. As to conditions: human. The method, then:
as §1, §2

Series [3] is described as follows: Cell viability, MTT assay, HCT-116. Format: cell-based, human. The note with it: human. How it is done:
as §1, §2

Series [4] can be described thus: Cell viability, crystal violet (CV) assay, PC-3. Format: cell-based. The note with it: human. The method, then: as §1, §2
The target in series [5] is Recombinant SARS-CoV-2 3CLpro (Severe acute respiratory syndrome coronavirus 2, UniProt P0DTD1). The series is described as follows: FRET enzymatic inhibition assay, 3CLpro. Type of series: biochemical. The note with it: for inhibition at 1000 µM: read-out: Maximum inhibition (%) 3CLpro.
Series [6] concerns PC-3 (prostatic carcinoma cell). The series can be described thus: Cell viability, MTT assay, PC-3. The note with it: 10 µM (goyazensolide: ≤ 10 µM), 48 h, MTT and CV assays. Format: cell-based, human. How it is done:
as §1, §2
Background: Tetrazolium dyes change colour on reduction, which living cells bring about.

Series [7] addresses Recombinant SARS-CoV-2 PLpro (Severe acute respiratory syndrome coronavirus 2, UniProt P0DTD1). The series can be described thus: FRET enzymatic inhibition assay, PLpro. Format: biochemical.
Series [8] has as its system HCT-116 (colorectal carcinoma cell). The series is described as follows: Cell viability, MTT assay, HCT-116. Format: cell-based, human. The note with it: 10 µM (goyazensolide: ≤ 10 µM), 48 h, MTT and CV assays. How it is done: as §1, §2
In series [9] the test system is clinical isolate of S. aureus. Also noted: method as in doi:10.1007/s43450-021-00176-z. The note with it: cited from earlier work.
In another series the test system is S. aureus. Also noted: method as in doi:10.1007/s43450-021-00176-z. The note with it: cited from earlier work.
A further series deals with glioblastoma multiforme. Also noted: method as in doi:10.1590/S0102-695X2012005000131. As to conditions: cited from earlier work.
[10] abbreviates: 125 µg/mL (101.7 µM), positive control.
[11] abbreviates: HCT-116 colorectal carcinoma cells.
Setting [12] is: maximum inhibition conc. 1,000 µM (highest concentration tested).

“And” between values parts separate entries of the source, which are not always exact repeats. Identical values can stand only once. “Also recorded” adds a separate entry of the source. Like-named read-outs stand apart in the source and are kept apart here.

For `C[C@@H]1CC[C@@]2(OC1)O[C@H]1[C@@H](O)[C@H]3[C@@H]4CC[C@H]5C[C@@H](O[C@@H]6O[C@H](CO)[C@H](O[C@@H]7O[C@H](CO)[C@@H](O)[C@H](O[C@@H]8OC[C@@H](O)[C@H](O)[C@H]8O)[C@H]7O[C@@H]7O[C@H](CO)[C@H](O)[C@H](O[C@@H]8O[C@H](CO)[C@@H](O)[C@H](O)[C@H]8O)[C@H]7O)[C@H](O)[C@H]6O)[C@H](O)C[C@]5(C)[C@H]4CC[C@]3(C)[C@H]1[C@@H]2C` [DGTN, digitonin, reference compound], the viability at 48 h, 101.7 µM in [1] (setting [10]), in series [2] (setting [10]), in series [3] (setting [10]) and in [4] (setting [10]) was 0% in each case.
`C=C(C)C(=O)OC1CC2(C)OC(=CC2=O)C(CO)=CC2OC(=O)C(=C)C21` (stereo not drawn) [Goyazensolide, goyazensolide]: the viability (in general, a read-out of living cells in per cent, often relative to untreated cells) at 48 h, 0.01 µM in series [1] (setting [11]) stood at 113 ± 4%; in [2] (PC-3 prostatic carcinoma cells), 86.6 ± 4.7%; in series [3] (setting [11]), 99.6 ± 5.9%; in [4] (PC-3 prostatic carcinoma cells), 89.5 ± 2.8%. Moreover, the viability at 48 h, 10 µM was found to be 92.1 ± 9% in series [1] (setting [11]), 100 ± 18% in [2] (PC-3 prostatic carcinoma cells), 100 ± 5.8% in series [3] (setting [11]) and 91.4 ± 1.7% in series [4] (PC-3 prostatic carcinoma cells). In addition, the “Maximum inhibition (%) 3CLpro” value in series [5] (setting [12]) amounted to 96%. Further, the inhibition at 1000 µM in [5] (setting [12]) came to 96.14 ± 0.01%; in series [7] (maximum inhibition conc. 1,000 µM (highest concentration tested), read-out: Maximum inhibition (%) PLpro) it was 80.7 ± 5.9%. Also, the IC50 (in general, the concentration needed to halve the response being measured) in [5] (read-out: Apparent IC50 3CLpro) was 71.1 µM and 71 µM; in series [7] (read-out: Apparent IC50 PLpro), 317 µM. The “Reduction of cell viability, PC-3” value in [6] is given as “no noteworthy effects; also recorded: unable to decrease cell viability; also recorded: no such effect”. In [8], the “Reduction of cell viability, HCT-116” value is listed as “no noteworthy effects; also recorded: unable to decrease cell viability; also recorded: no such effect”.
For the compound `C=C1C(=O)OC2C=C(CO)C3=CC(=O)C(C)(CC(OC(=O)C(C)=CC)C12)O3` (stereo not drawn) [Centratherin, centratherin], the “Concentration inhibiting clinical isolate of S. aureus” value in [9] was 32 µg/mL. The viability at 48 h, 0.01 µM in [1] stood at 114 ± 5.6%; in series [2], 100 ± 13.5%; in [3], 100 ± 9.6%; in series [4], 100 ± 3.6%. Moreover, the viability at 48 h, 10 µM in series [1] was 3.5 ± 9.1%; in series [2], 0%; in series [3], 0%; in series [4], 0%. The 50% inhibitory concentration (IC50) in series [5] (Apparent IC50 3CLpro) was 165 µM; in series [7] (Apparent IC50 PLpro) it was 12 µM and 11.9 µM. The inhibition at 1000 µM in series [5] was 89.5 ± 0.97%; in [7] (read-out: Maximum inhibition (%) PLpro, maximum inhibition conc. 1,000 µM (highest concentration tested)), 96.77 ± 0.3%. In the series with S. aureus, the “Concentration with antibiofilm activity” value is 128 µg/mL. In addition, the “Maximum inhibition (%) PLpro” value in [7] (setting [12]) was found to be 97%. For the same compound, the “Cytotoxic activity against glioblastoma multiforme” value in the series on glioblastoma multiforme is given as “exhibited cytotoxic activity”. For the same compound, the “IC50 values against glioblastoma multiforme, compared with doxorubicin” value in the series with glioblastoma multiforme was “comparable to the commercial anticancer drug doxorubicin”.

The record behind these values is PMC12566191, “Isolation and In Vitro Activity of Sesquiterpene Lactones from Eremanthus crotonoides as SARS-CoV-2 Protease Inhibitors and Cytotoxic Agents” (Molecules, 2025).
